In US6864046B1, “Method for collecting and preserving semen” (Texas Tech University, priority 2000, dated 2005):

Tested on: spermatozoa
Conditions: calcium compound substituted for calcium chloride in Ringer's lactate; culturing 1-24 hr

Compound | semen function (percent motility, FIGS. 5a and 5b)
O=C([O-])[O-].[Ca+2] [calcium carbonate] | maintained best
calcium gluconate | maintained best
calcium phosphate | maintained best
